Results as given in patent publication US4389412A, “Substituted cyclopropanecarboxylic acid esters and pesticidal compositions containing the same as active ingredient” (priority 1979, dated 1983).
Converted amounts (≈) assume the structure as drawn. Like-named read-outs stand apart in the source and are kept apart here.

Tests used:
[1] = test system: small brown planthoppers (Laodelphax striatellus Fallen); experiment: Utility Example-3: spray on rice plants, small brown planthoppers; type: in vivo; details: 7 ml/pot, 24 hours
Experimental: (§1) A 30% emulsifiable concentrate of each of the cis- and trans-isomers and a 50:50 mixture of the cis- and trans-isomers of Compound (1) and of Compound (2) as prepared by the procedure described in Formulation Example-1 was diluted with water to a concentration of 80 ppm as active compound. Rice plants 4 weeks after sowing in pots (each pot 6 cm in diameter, 7 seedlings) were sprayed with the above diluted solution at the rate of 7 ml/pot and, after drying in the air, each pot was covered with a wire-mesh cage. Then, 30 adult small brown planthoppers (Laodelphax striatellus Fallen) were released into the cage. The pots were kept in a constant-temperature chamber at 25° C. […] In all groups, the mortality was not less than 90%.

[2] = test system: two-spotted spider mites (Tetranychus urticae Koch); experiment: Mortality test with two-spotted spider mites by spray application method; type: in vivo; details: 48 h, 200 ppm spray, two days, read-out: Percent decrease of population (%)
Experimental: Mortality test with two-spotted spider mites (Tetranychus urticae Koch) by spray application method
To a 5% aqueous solution of acetone was added dropwise a small amount of Tween-20 (polyethylene sorbitan monolaurate) as a surfactant. […] From 30 to 50 adult two-spotted spider mites (Tetranychus urticae Koch) were released on the leaves of kidney-bean plants in the dicotyledonous stage in a pot 9 cm in diameter, followed by a spray application of the above solution. The pot was kept in a constant-temperature chamber at 26° C. and two days later the mites were examined for deaths. The percent decrease of population was then calculated.

[3] = test system: green rice leafhoppers (Nephotettix cincticeps Uhler); experiment: Utility Example-2: spray on rice plants, green rice leafhoppers; type: in vivo; details: 7 ml/pot, 24 hours
Experimental: as §1, with “and” for “and of”, “above” for “above diluted”, “Then, 20 female” for “Then, 30”, “adult green rice leafhoppers (Nephotettix cincticeps Uhler)” for “adult small brown planthoppers (Laodelphax striatellus Fallen)”, “The caged” for “The”, “mortality values were” for “mortality was”

carp and water flea = experiment: Fish toxicity ranking according to Japanese regulations; set-up: species or system Cyprinus carpio L; Daphnia pulex; details: from TLm for carp and water flea
Procedure, shortened: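 Ranking per Japanese agrochemical regulations from median tolerance limits: A = carp TLm (48 hrs.) >10 ppm and water flea TLm (3 hrs.) >0.5 ppm; B = carp 10-0.5 ppm, or carp >10 ppm with water flea <0.5 ppm; C = carp TLm (48 hrs.) <0.5 ppm.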

[4] = test system: rice stem borers (Chilo suppressalis Walker); experiment: Mortality test with rice stem borers by topical application method; type: in vivo; details: 24 h; for mortality at 0.001 mg: read-out: Pesticidal effect, rice stem borer
Experimental: Mortality test with rice stem borers (Chilo suppressalis Walker) by topical application method
Using a microsyringe, 0.5 μl of the above solution was applied to the thoracic abdominal region of each final-instar larva of rice stem borer (Chilo suppressalis Walker). […] The test larvae were used in groups of 20 individuals each.

[5] = test system: brown planthoppers (Nilaparvata lugens); experiment: Utility Example-7: 0.5% dust on rice seedlings, brown planthoppers; type: in vivo; details: 1 kg per 10 ares, 24 hours
From the text: A 0.5% dust preparation of each of the cis- and trans-isomers and a 50:50 mixture of the cis- and trans-isomers of Compound (1) and of Compound (2) as prepared by the procedure described in Formulation Example-4 was applied to rice seedlings, on which 30 adult brown planthoppers (Nilaparvata lugens) were released, by means of a bell-jar duster at the rate of 1 kg per 10 ares. […] In all cases, the mortality was not less than 90%.

[6] = Fish toxicity test with killifish; type: in vivo, Orizias latipes; details: water, killifish, 25±1° C., read-out: TLm (48 hrs.)
Procedure, shortened: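 Test compound dispensed from acetone solution into water at set concentrations; ten aerated-water killifish (~0.25 g, ~2.5 cm) held at 25±1° C. Deaths scored after 48 hours; TLm (median tolerance limit, ppm) determined.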

[7] = test system: tobacco cutworms (Prodenia litura Fabricius); experiment: Mortality test with tobacco cutworms by topical application method; type: in vivo; details: 24 h
Experimental: Mortality test with tobacco cutworms (Prodenia litura Fabricius) by topical application method
Using a microsyringe, 0.5 μl of the above solution was dripped onto the thoracic adbominal region of each of 3-instar tobacco cutworm (Prodenia litura Fabricius) larvae. […] The test larvae were used in groups of 20 individuals each.

[8] = read-out: Pesticidal effect, tobacco cutworm

Structure (SMILES): C#CC(OC(=O)C1C(C=C(Cl)Cl)C1(C)C)c1cccc(Oc2ccc(Cl)cc2)c1 (stereo not drawn) [Compound (2) cis-/trans- = 50:50, 3-(4-chlorophenoxy)-α-ethynylbenzyl 2,2-dimethyl-3-(2,2-dichlorovinyl)cyclopropanecarboxylate]
- mortality at 80 ppm [1]: ≥ 90%
- mortality at 200 ppm [2]: 100%
- mortality at 80 ppm [3]: ≥ 90%
- Ranking (carp and water flea): B (TLm (48 hrs.) value 10-0.5 ppm for carp; or TLm (48 hrs.) value >10 ppm for carp and TLm (3 hrs.) value <0.5 ppm for water flea, wherein appreciable toxicity to fishes is not observed by usual application but may be observed when applied to wide area at one time.)
- mortality at 1 µg/larva [4]: 100%
- mortality at 10 µg/larva [4]: 100%
- mortality at 0.001 mg [4]: 100%
- mortality [5]: not less than 90%
- LC50 at 48 h [6]: > 10 µg/mL
- mortality at 0.0001 mg [7]: 100%
- mortality at 0.0001 mg [7, 8]: 100%

Structure (SMILES): CC1(C)[C@@H](C=C(Cl)Cl)[C@@H]1C(=O)OCc1cccc(Oc2ccc(Cl)cc2)c1 (relative stereo) [Compound (1) trans-, 3-(4-chlorophenoxy)benzyl trans-2,2-dimethyl-3-(2,2-dichlorovinyl)cyclopropanecarboxylate]
- mortality at 80 ppm [1]: ≥ 90%
- mortality at 200 ppm [2]: 100%
- mortality at 80 ppm [3]: ≥ 90%
- Ranking (carp and water flea): B (TLm (48 hrs.) value 10-0.5 ppm for carp; or TLm (48 hrs.) value >10 ppm for carp and TLm (3 hrs.) value <0.5 ppm for water flea, wherein appreciable toxicity to fishes is not observed by usual application but may be observed when applied to wide area at one time.)
- mortality at 1 µg/larva [4]: 85%
- mortality at 10 µg/larva [4]: 100%
- mortality [5]: not less than 90%
- LC50 at 48 h [6]: > 10 µg/mL
- mortality at 0.0001 mg [7]: 100%

Structure (SMILES): C#CC(OC(=O)[C@@H]1[C@@H](C=C(Cl)Cl)C1(C)C)c1cccc(Oc2ccc(Cl)cc2)c1 (relative stereo) [Compound (2) trans-]
- mortality at 80 ppm [1]: ≥ 90%
- mortality at 200 ppm [2]: 100%
- mortality at 80 ppm [3]: ≥ 90%
- Ranking (carp and water flea): A (TLm (48 hrs.) value >10 ppm for carp and TLm (3 hrs.) value >0.5 ppm for water flea, wherein toxicity to fishes is not observed by usual application.)
- mortality at 1 µg/larva [4]: 100%
- mortality at 10 µg/larva [4]: 100%
- mortality [5]: not less than 90%
- LC50 at 48 h [6]: > 10 µg/mL
- mortality at 0.0001 mg [7]: 100%

Structure (SMILES): C#CC(OC(=O)[C@@H]1[C@H](C=C(Cl)Cl)C1(C)C)c1cccc(Oc2ccc(Cl)cc2)c1 (relative stereo) [Compound (2) cis-]
- mortality at 80 ppm [1]: ≥ 90%
- mortality at 200 ppm [2]: 100%
- mortality at 80 ppm [3]: ≥ 90%
- Ranking (carp and water flea): B (TLm (48 hrs.) value 10-0.5 ppm for carp; or TLm (48 hrs.) value >10 ppm for carp and TLm (3 hrs.) value <0.5 ppm for water flea, wherein appreciable toxicity to fishes is not observed by usual application but may be observed when applied to wide area at one time.)
- mortality at 1 µg/larva [4]: 100%
- mortality at 10 µg/larva [4]: 100%
- mortality [5]: not less than 90%
- LC50 at 48 h [6]: > 10 µg/mL
- mortality at 0.0001 mg [7]: 100%

Structure (SMILES): CC1(C)C(C=C(Cl)Cl)C1C(=O)OCc1cccc(Oc2ccccc2)c1 (stereo not shown) [Compound (B), Permethrin]
- mortality at 200 ppm [2]: 100%
- Ranking (carp and water flea): C (TLm (48 hrs.) value <0.5 ppm for carp, wherein toxicity to fishes is so strongly observed by usual application that both the application method and application area are strictly restricted.)
- mortality at 1 µg/larva [4]: 95%
- mortality at 10 µg/larva [4]: 100%
- mortality at 0.001 mg [4]: 95%
- LC50 at 48 h [6]: 0.04 µg/mL (≈ 0.102 µM)
- mortality at 0.0001 mg [7]: 85%
- mortality at 0.0001 mg [7, 8]: 85%
